# Source: US20250152584A1, “NLRP3 INFLAMMASOME INHIBITOR AND USES THEREOF” (TransThera Sciences (Nanjing), Inc., priority 2022, published 2025)
# Assays:
# [1] = Pharmacokinetic study in beagles; format: in vivo; details: beagle, dog, plasma, male beagles; for Cmax: read-out: Cmax po (peak concentration); for Tmax: read-out: Tmax po (peak time of plasma concentration); for clearance: read-out: Cl—obs iv (clearance rate) (converted); for Vd: read-out: Vss iv (volume of distribution); for bioavailability: iv 1.0 mg/kg / po 1.0 mg/kg, read-out: F % (absolute bioavailability)
# Protocol: Experimental Example 4: Pharmacokinetic Study of Compounds in Beagles
# Compound 174 was prepared into a solution with a mixed solvent formulated from 5% dimethyl sulfoxide, 20% (30% solutol) and 75% normal saline; the solution of this compound was administered to male beagles by gavage at a dose of 1.0 mg/kg; and the time points for blood collection were: 15 min, 30 min, 1 b, 2 h, 4 h, 6 b, 8 h, 10 h and 24 h. The solution of the compound was administered to male beagles by intravenous bolus at a dose of 1.0 mg/kg, and the time points for blood collection were as follows: 5 min, 15 min, 30 min, 1 h, 2 h, 4 h, 6 h, 8 h, 10 h, and 24 h.
# Compound 177 and Compound 195 were prepared into solutions with a mixed solvent formulated from 5% dimethyl sulfoxide, 20% (30% solutol) and 75% normal saline, respectively; the solutions of these compounds were administered to male beagles by gavage at a dose of 1.0 mg/kg; and the time points for blood collection were: 15 min, 30 min, 1 h, 2 h, 4 h, 6 h, 8 h, 10 h and 24 h. The solution of the compound was administered to male beagles by intravenous bolus at a dose of 1.0 mg/kg, and the time points for blood collection were as follows: 5 min, 15 min, 30 min, 1 h, 2 h, 4 h, 6 h, 8 h, 10 h, and 24 h.
# Approximately 400 μL of blood was collected through the medial cephalic vein of the forelimb and placed in an anticoagulant tube containing EDTA-K2. Blood samples were centrifuged at 12,000 rpm for 10 min at 4° C. to obtain plasma samples, and plasma was prepared within 30 min after blood collection. The plasma was stored in a −80° C. freezer before testing.
# [2] = Pharmacokinetic study in C57BL/6J mice; format: in vivo; details: mouse, plasma, C57BL/6J female mice
# Protocol: Experimental Example 2: Pharmacokinetic Study of Compounds in C57BL/6J Mice
# Compound 100, Compound 54, Compound 174, Compound 179, and Compound 253 were prepared into solutions with a mixed solvent formulated from 5% dimethyl sulfoxide, 20% (30% solutol) and 75% normal saline, respectively; the solution of each compound was administered to C57BL/6J female mice by gavage at a dose of 10 mg/kg; and the time points for blood collection were: 15 min, 30 min, 1 h, 2 h, 4 h, 6 h, 8 h and 24 h. The solution of the compound was administered to C57BL/6J female mice by intravenous bolus at a dose of 5 mg/kg, and the time points for blood collection were as follows: 5 min, 15 min, 30 min, 1 h, 2 h, 4 h, 6 h, 8 h, and 24 h.
# Compound 1 was prepared into a solution with a mixed solvent formulated from 5% DME, 20% (30% solutol) and 75% normal saline; the solution of this compound was administered to C57BL/6J female mice by gavage at a dose of 10 mg/kg, and the time points for blood collection were: 15 min, 30 min, 1 h, 2 h, 4 h, 6 h, 8 h, and 24 h. The solution of the compound was administered to C57BL/6J female mice by intravenous bolus at a dose of 5 mg/kg, and the time points for blood collection were as follows: 5 min, 15 min, 30 min, 1 h, 2 h, 4 h, 6 h, 8 h, and 24 h.
# Compound 195 was prepared into a solution with a mixed solvent formulated from 5% dimethyl sulfoxide, 20% PEG400 and 75% normal saline; the solution of this compound was administered to C57BL/6J female mice by gavage at a dose of 10 mg/kg; and the time points for blood collection were 15 min, 30 min, 1 h, 2 h, 4 h, 6 h, 8 h, and 24 b. The solution of the compound was administered to C57BL/6J female mice by intravenous bolus at a dose of 5 mg/kg, and the time points for blood collection were as follows: 5 min, 15 min, 30 min, 1 h, 2 b, 4 h, 6 h, 8 h, and 24 h.
# Approximately 100 μL of blood was collected through the retroorbital venous plexus, and was then placed in an anticoagulant tube containing EDTA-K2. Blood samples were centrifuged at 12,000 rpm for 10 min at 4° C. to obtain plasma samples, and plasma was prepared within 30 min after blood collection. The plasma was stored in a −80° C. freezer before testing.
# • 1. The samples were taken from the −80° C. freezer, thawed naturally at room temperature, and then vortexed for 5 min • 2. 10 μL of a plasma sample was precisely pipetted from different individuals into a 1.5 mL centrifuge tube. • 3. 300 μL of an internal standard working solution (the acetonitrile solution of tolbutamide) at a concentration of […] was added and mixed well. • 4. After vortexing for 5 min, the mixture was centrifuged at 12,000 rpm for 5 min. • 5. 50 μL of the supernatant was accurately pipetted into a 96-well plate preloaded with water at 150 μL/well. • 6. Vortexing was performed for 5 min for sufficient mixing, and LC-MS/MS analysis was then conducted.
# The results of the concentrations of the compounds under test were output using Analyst 1.6.3 of AB. Parameters such as mean, standard deviation, coefficient of variation was calculated by Microsoft Excel (parameters directly output by Analyst 1.6.3 needed no calculation), and PK parameters were calculated by WinNonlin Phenoix 8.2 software NCA (Tmax as the median).
# [3] = po, gavage 1.0 mg/kg, read-out: AUClast po (area under the drug-time curve for 0-24 h)
# [4] = po, gavage 1.0 mg/kg, read-out: tz1/2 po (terminal elimination half-life) (converted)
# [5] = intravenous bolus 1.0 mg/kg, read-out: AUClast iv (area under the drug-time curve for 0-24 h)
# [6] = intravenous bolus 1.0 mg/kg, read-out: tz1/2 iv (terminal elimination half-life) (converted)
"AUC(0-t) [1, 3]","Cmax ([1]; po, gavage 1.0 mg/kg)","Tmax ([1]; po, gavage 1.0 mg/kg)","half-life [1, 4]","AUC(0-t) [1, 5]",clearance ([1]; intravenous bolus 1.0 mg/kg),Vd ([1]; intravenous bolus 1.0 mg/kg),"half-life [1, 6]",bioavailability [1],"Tmax ([2]; po, gavage 10 mg/kg, median, read-out: Tmax po (peak time of plasma concentration))","AUC(0-t) ([2]; po, gavage 10 mg/kg, read-out: AUClast po (area under the drug-time curve for 0-24 h))","Cmax ([2]; po, gavage 10 mg/kg, read-out: Cmax po (peak concentration))","half-life ([2]; po, gavage 10 mg/kg, read-out: tz1/2 po (terminal elimination half-life) (converted))","AUC(0-t) ([2]; intravenous bolus 5 mg/kg, read-out: AUClast iv (area under the drug-time curve for 0-24 h))","clearance ([2]; intravenous bolus 5 mg/kg, read-out: Cl—obs iv (clearance rate) (converted))","Vd ([2]; intravenous bolus 5 mg/kg, read-out: Vss iv (volume of distribution))","half-life ([2]; intravenous bolus 5 mg/kg, read-out: tz1/2 iv (terminal elimination half-life) (converted))","bioavailability ([2]; iv 5 mg/kg / po 10 mg/kg, read-out: F % (absolute bioavailability))",Compound
1920 ng·h/mL,293 ng/mL,1 h,5.9 h,1240 ng·h/mL,13 mL/min/kg,5.53 L/kg,5.58 h,154%,,,,,,,,,,C#Cc1ccc(-c2nnc(N[C@@H]3CCCN(C)C3)nc2C)c(O)c1 [Compound 177]
1900 ng·h/mL,206 ng/mL,4 h,11 h,2320 ng·h/mL,6.58 mL/min/kg,3.74 L/kg,8.16 h,90.7%,1 h,7860 ng·h/mL,1230 ng/mL,3.12 h,3580 ng·h/mL,23.2 mL/min/kg,5.14 L/kg,3.89 h,110%,CC#Cc1ccc(-c2nnc(N[C@@H]3CCCN(C)C3)nc2C)c(O)c1 [Compound 195]
